This is an account of results in patent US20110152094A1, “Herbicidal compositions comprising flufenacet” (Bayer CropScience AG, priority 2009, published 2011).

Common to all, as to type: in vivo
Experiment [1] deals with AVEFA = Avena fatua. The experiment can be described thus: Greenhouse trial, PE application with different irrigation variations (test method 6). The following applies: g of AS/ha: (A) 120, (B) 1200, (A)+(B) 120 + 1200. The protocol:
(§1) In the standard design of the test, seeds of various broad-leaved weed and weed grass biotypes (origins) were sown in a 8-13 cm diameter pot filled with natural soil of a standard field soil (loamy silt; non-sterile) and covered with a covering soil layer of about 1 cm. The pots were then cultivated in a greenhouse (12-16 h of light, temperature day 20-22° C., night 15-18° C.) until the time of application. The pots were treated on a laboratory track sprayer with spray liquors comprising the compositions according to the invention, mixtures of the prior art or components used individually. Application of the active compounds or active compound combinations formulated as WG, WP, EC or otherwise was carried out at the appropriate growth stages of the plants. The application rate for the spray application was 100-600 l of water/ha. After the treatment, the plants were returned to the greenhouses.
(§2) About 3 weeks after the application, the soil action or/and foliar action was assessed visually according to a scale of 0-100% in comparison to an untreated comparative group: 0%=no noticeable effect compared to the untreated comparative group; 100%=full effect compared to the untreated comparative group.
(§3) (notes: the term “seeds” also includes vegetative propagation forms such as, for example, rhizome pieces; abbreviations used: h light=hours of illumination, g of AS/ha=gram of active substance per hectare, l/ha=liter per hectare, S=sensitive, R=resistant) • 1. Pre-emergence action against weeds: seeds of various broad-leaved weed and weed grass biotypes (origins) were sown in a 8-13 cm diameter pot filled with natural soil of a standard field soil (loamy silt; non-sterile) and covered with a covering soil layer of about 1 cm. The pots were then cultivated in a greenhouse (12-16 h of light, temperature day 20-22° C., night 15-18° C.) until the time of application. The pots were treated at the BBCH stage 00-10 of the seeds/plants on a laboratory track sprayer with spray liquors comprising the compositions according to the invention, mixtures or components used individually, as WG, WP, EC or other formulations. The application rate for the spray application was 100-600 l of water/ha. After the treatment, the plants were returned to the greenhouses and, when required, treated with fertilizer and watered. • 2. Post-emergence action against weeds: seeds of various broad-leaved weed and weed grass biotypes (origins) were sown in a 8-13 cm diameter pot filled with natural soil of a standard field soil (loamy silt; non-sterile) and covered with a covering soil layer of about 1 cm. The pots were then cultivated in a greenhouse (12-16 h of light, temperature day 20-22° C., night 15-18° C.) until the time of application. The pots were treated at various BBCH stages between 11-25 of the seeds/plants, i.e. generally between two to three weeks after the start of the cultivation, on a laboratory track sprayer with spray liquors comprising the compositions according to the invention, mixtures or components used individually, as WG, WP, EC or other formulations. The application rate for the spray application was 100-600 l of water/ha. After the treatment, the plants were returned to the greenhouses and, when required, treated with fertilizer and watered. • 3. Selective pre-emergence action: seeds of various crop species (origins) were sown in a 8-13 cm diameter pot filled with natural soil of a standard field soil (loamy silt; non-sterile) and covered with a covering soil layer of about 1 cm. The pots were then cultivated in a greenhouse (12-16 h of light, temperature day 20-22° C., night 15-18° C.) until the time of application. The pots were treated at the BBCH stage 00-10 of the seeds/plants on a laboratory track sprayer with spray liquors comprising the compositions according to the invention, mixtures or components used individually, as WG, WP, EC or other formulations. The application rate for the spray application was 100-600 l of water/ha. […]

Experiment [2] deals with MATCH = Matricaria chamomilla. Described as above. The conditions noted are these: g of AS/ha: (A) 120, (B) 1200, (A)+(B) 120 + 1200. The protocol:
as §1, §2, §3

In experiment [3] the test system is STEME = Stellaria media. The experiment can be described thus: Greenhouse trial, activity with different soil types (test method 7). The following applies: g of AS/ha: (A) 120, (B) 1200, (A)+(B) 120 + 1200. The protocol: as §1, §2, §3
Experiment [4] deals with ALOMY resistant (Alopecurus myosuroides). The experiment can be described thus: Greenhouse trial, PE application on resistant biotypes (test method 8). The following applies: resistant biotype, g of AS/ha: (A) 90, (B) 1200, (A)+(B) 90 + 1200. The protocol: as §1, §2, §3
Experiment [5] relates to MATCH sensitive (Matricaria chamomilla). Described as above. The following applies: sensitive biotype, g of AS/ha: (A) 90, (B) 1200, (A)+(B) 90 + 1200, (C) 10. The method, then: as §1, §2, §3
For experiment [6], the system named is ALOMY sensitive (Alopecurus myosuroides). Described as above. The following applies: sensitive biotype, g of AS/ha: (A) 90, (B) 1200, (A)+(B) 90 + 1200. The protocol: as §1, §2, §3
Experiment [7] concerns MATCH resistant (Matricaria chamomilla). Described as above. The following applies: resistant biotype, g of AS/ha: (A) 90, (B) 1200, (A)+(B) 90 + 1200, (C) 10. The method, then:
as §1, §2, §3

A further experiment relates to VIOAR = Viola arvensis. The experiment can be described thus: Greenhouse trial, post-emergence (PO) action against weeds (test method 2). The conditions noted are these: PO application; g of AS/ha: (A) 120, (B) 1200, (A)+(B) 120 + 1200; about 3 weeks after application. The method, then: as §1, §2, §3
Experiment [8] concerns LOLPE = Lolium perenne. The experiment is described as above. The following applies: PO application; g of AS/ha: (A) 120, (B) 1200, (A)+(B) 120 + 1200; about 3 weeks after application. The method, then: as §1, §2, §3
The test system of experiment [9] is STEME = Stellaria media. Described as above. The following applies: PO application; g of AS/ha: (A) 120, (B) 1200, (A)+(B) 120 + 1200; about 3 weeks after application. The method, then:
as §1, §2, §3

The subject of experiment [10] is AVEFA = Avena fatua. The experiment can be described thus: Greenhouse trial, pre-sowing application 7 days prior to sowing (test method 5). The following applies: g of AS/ha: (A) 90, (B) 1200, (A)+(B) 90 + 1200. The protocol: as §1, §2
(§4) (notes: the term “seeds” also includes vegetative propagation forms such as, for example, rhizome pieces; abbreviations used: h light=hours of illumination, g of AS/ha=gram of active substance per hectare, l/ha=liter per hectare, S=sensitive, R=resistant) • 1. Pre-emergence action against weeds: seeds of various broad-leaved weed and weed grass biotypes (origins) were sown in a 8-13 cm diameter pot filled with natural soil of a standard field soil (loamy silt; non-sterile) and covered with a covering soil layer of about 1 cm. The pots were then cultivated in a greenhouse (12-16 h of light, temperature day 20-22° C., night 15-18° C.) until the time of application. The pots were treated at the BBCH stage 00-10 of the seeds/plants on a laboratory track sprayer with spray liquors comprising the compositions according to the invention, mixtures or components used individually, as WG, WP, EC or other formulations. The application rate for the spray application was 100-600 l of water/ha. After the treatment, the plants were returned to the greenhouses and, when required, treated with fertilizer and watered. • 2. Post-emergence action against weeds: seeds of various broad-leaved weed and weed grass biotypes (origins) were sown in a 8-13 cm diameter pot filled with natural soil of a standard field soil (loamy silt; non-sterile) and covered with a covering soil layer of about 1 cm. The pots were then cultivated in a greenhouse (12-16 h of light, temperature day 20-22° C., night 15-18° C.) until the time of application. The pots were treated at various BBCH stages between 11-25 of the seeds/plants, i.e. generally between two to three weeks after the start of the cultivation, on a laboratory track sprayer with spray liquors comprising the compositions according to the invention, mixtures or components used individually, as WG, WP, EC or other formulations. The application rate for the spray application was 100-600 l of water/ha. After the treatment, the plants were returned to the greenhouses and, when required, treated with fertilizer and watered. • 3. […]

For experiment [11], the system named is MATCH = Matricaria chamomilla. Described as above. The following applies: g of AS/ha: (A) 90, (B) 1200, (A)+(B) 90 + 1200. The protocol: as §1, §2, §4
In experiment [12] the test system is LOLPE = Lolium perenne. The experiment can be described thus: Greenhouse trial, PE application at different sowing depths (test method 9). The conditions noted are these: g of AS/ha: (A) 120, (B) 1200, (A)+(B) 120 + 1200. The method, then: as §1, §2, §3
Experiment [13] deals with STEME = Stellaria media. The description is as above. The following applies: g of AS/ha: (A) 120, (B) 1200, (A)+(B) 120 + 1200. The method, then:
as §1, §2, §3

The test system of experiment [14] is AVEFA = Avena fatua. The experiment can be described thus: Greenhouse trial, pre-emergence (PE) action against weeds (test method 1). The conditions noted are these: PE application; g of AS/ha: (A) 90, (B) 1200, (A)+(B) 90 + 1200. The protocol:
as §1, §2
(§5) (notes: the term “seeds” also includes vegetative propagation forms such as, for example, rhizome pieces; abbreviations used: h light=hours of illumination, g of AS/ha=gram of active substance per hectare, l/ha=liter per hectare, S=sensitive, R=resistant) • 1. Pre-emergence action against weeds: seeds of various broad-leaved weed and weed grass biotypes (origins) were sown in a 8-13 cm diameter pot filled with natural soil of a standard field soil (loamy silt; non-sterile) and covered with a covering soil layer of about 1 cm. The pots were then cultivated in a greenhouse (12-16 h of light, temperature day 20-22° C., night 15-18° C.) until the time of application. The pots were treated at the BBCH stage 00-10 of the seeds/plants on a laboratory track sprayer with spray liquors comprising the compositions according to the invention, mixtures or components used individually, as WG, WP, EC or other formulations. The application rate for the spray application was 100-600 l of water/ha. After the treatment, the plants were returned to the greenhouses and, when required, treated with fertilizer and watered. • 2. Post-emergence action against weeds: seeds of various broad-leaved weed and weed grass biotypes (origins) were sown in a 8-13 cm diameter pot filled with natural soil of a standard field soil (loamy silt; non-sterile) and covered with a covering soil layer of about 1 cm. The pots were then cultivated in a greenhouse (12-16 h of light, temperature day 20-22° C., night 15-18° C.) until the time of application. […]

Experiment [15] deals with MATCH = Matricaria chamomilla. Described as above. The following applies: PE application; g of AS/ha: (A) 90, (B) 1200, (A)+(B) 90 + 1200. The method, then: as §1, §2, §5

Turning to `CC(C)N(C(=O)COc1nnc(C(F)(F)F)s1)c1ccc(F)cc1` [(A) flufenacet, N-(4-fluorophenyl)-N-(1-methylethyl)-2-[[5-(trifluoromethyl)-1,3,4-thiadiazol-2-yl]oxy]acetamide], the “activity AVEFA (visual assessment, scale 0-100% vs untreated)” value in the experiment with AVEFA = Avena fatua [1] (irrigation from above) is given as 85%; with AVEFA = Avena fatua [1] (irrigation from below) it was 50%; in the experiment on AVEFA = Avena fatua [10] it was 70%; with AVEFA = Avena fatua [14], 85%. For the same compound, the “activity MATCH (visual assessment, scale 0-100% vs untreated)” value is 97% in [2] (irrigation from above), 35% in [2] (irrigation from below), 93% in experiment [11] and 15% in experiment [15]. In addition, in the experiment on STEME = Stellaria media [3] (IU soil (loamy silt, standard field soil)), the “activity STEME IU soil (visual assessment, scale 0-100% vs untreated)” value stood at 89%. Besides, the “activity STEME IU/EC73 soil (visual assessment, scale 0-100% vs untreated)” value in the experiment on STEME = Stellaria media [3] (IU/EC73 soil (heavier soil, higher organic substance)) is listed as 0%. Besides, the “Difference of the soil types Δ^D, STEME” value in the experiment with STEME = Stellaria media [3] (IU/EC73 soil versus IU soil) was “Δ^D −89%”. The “activity ALOMY resistant (visual assessment, scale 0-100% vs untreated)” value in [4] was found to be 68%. Further, the “activity MATCH sensitive (visual assessment, scale 0-100% vs untreated)” value in experiment [5] worked out at 30%. In addition, in [6], the “activity ALOMY sensitive (visual assessment, scale 0-100% vs untreated)” value was 80%. Besides, in experiment [7], the “activity MATCH resistant (visual assessment, scale 0-100% vs untreated)” value is 30%. For the same compound, the “activity VIOAR (visual assessment, scale 0-100% vs untreated)” value in the experiment on VIOAR = Viola arvensis was 40%. The “activity LOLPE (visual assessment, scale 0-100% vs untreated)” value in the experiment on LOLPE = Lolium perenne [8] is 65%. In addition, the “activity STEME (visual assessment, scale 0-100% vs untreated)” value in the experiment on STEME = Stellaria media [9] was found to be 30%. Besides, the “activity LOLPE, sowing depth 5 mm (visual assessment, scale 0-100% vs untreated)” value in the experiment on LOLPE = Lolium perenne [12] (sowing depth 5 mm) amounted to 80%. For the same compound, the “activity LOLPE, sowing depth 20 mm (visual assessment, scale 0-100% vs untreated)” value with LOLPE = Lolium perenne [12] (sowing depth 20 mm) was 90%. In addition, in the experiment on STEME = Stellaria media [13] (sowing depth 5 mm), the “activity STEME, sowing depth 5 mm (visual assessment, scale 0-100% vs untreated)” value is 0%. For the same compound, the “activity STEME, sowing depth 20 mm (visual assessment, scale 0-100% vs untreated)” value with STEME = Stellaria media [13] (sowing depth 20 mm) came to 20%.
Regarding `COc1nc(C)nc(NC(=O)NS(=O)(=O)c2cc(I)ccc2C(=O)O)n1` [(C) iodosulfuron, iodosulfuron], in experiment [5], the “activity MATCH sensitive (visual assessment, scale 0-100% vs untreated)” value stood at 100%. In addition, the “activity MATCH resistant (visual assessment, scale 0-100% vs untreated)” value in [7] is on record as 60%.
